Test results reported in patent publication US20250206756A1, “INHIBITORS” (Pfizer Inc., priority 2023, published 2025).

system: SZ95 human sebocytes; assay: High content imaging assay to quantify lipid droplets in a human sebocyte cell line; format: cell-based; conditions: 48 hours incubation, Bodipy neutral lipid staining, read-out: Human SZ95 Sebocyte Lipid Imaging Assay / Percent Inhibition of Lipid Droplets IC50
Procedure: High content imaging assay to quantify lipid droplets in a human sebocyte cell line One week prior to cell dosing, SZ95 human sebocytes were thawed and grown in a T175 tissue culture flask containing 50 mL media. Media was prepared as follows: Sebomed basal medium with stable glutamine and without phenol red (Sigma; Catalog No. F8205), 10% heat inactivated fetal bovine serum (Invitrogen; Cat. No. 10082), 5 ng/mL recombinant human epidermal growth factor (Gibco; Catalog No. PHG0311), 1 mM calcium chloride (Fisher Scientific; Catalog No. BP9742), and 1X penicillin/streptomycin (Thermo Fisher; Catalog No. 15140-122). Cells were cultured at 37° C. and the media was replaced every 48-72 hours until start of assay. Compounds were delivered as a 75 nL spot by the Echo 550 (Labcyte) into 384-well assay plates (PerkinElmer; Catalog No. 6057308) with final compound concentrations of […], 0.003, 0.001, 0.0003, and 0.0001 μM. The final DMSO concentration was 0.1%. SZ-95 cells were washed with Dulbecco's phosphate buffered saline (DPBS, Lonza; Catalog No. 17-512Q) and then detached with 0.25% Trypsin-EDTA (Gibco; Catalog No. 25200056). Growth media (25 mL) was added to the flask and the cells were further diluted to 1.33×10∧5 cells/mL. SZ-95 cells were plated at a density of 10,000 cells/well in 75 μL and incubated for 48 hours at 37° C. Using the Biomek FX (Beckman), 25 μL of media was removed and the cells were fixed by adding 18.7 μL of 16% paraformaldehyde (Electron Microscopy Sciences; Cat. No. 50980488). After a 30 minute incubation at room temperature, the plates were washed twice with 75pi DPBS. Following the second wash, all remaining DPBS was removed. Staining solution was prepared with 2 μM Bodipy (Invitrogen; Cat. No D3922, diluted 1:1000) and Hoechst (Life Technologies; Cat. No. H3570, diluted 1:2000) in DPBS. Using the Biomek FX, 30 μL of the staining solution was added to each well. The cells were incubated for 20 minutes at room temperature, then washed once with 75 μL DPBS. Finally, 30 μL of DPBS was added to each well and the plates were sealed with light blocking film. The plates were read on an Opera Phenix (PerkinElmer) for high content imaging. Nuclei were detected by Hoechst staining and lipid droplets by Bodipy, which stains neutral lipids. […] The percent (%) effect at each concentration of compound is calculated by Genedata Screener analysis program using a four-parameter logistic dose response equation and is based on and relative to the amount of lipid droplets in the positive and negative control wells contained within each assay plate to determine the 50% inhibition concentration (IC50).

Row | IC50 | Structure (SMILES)
1 | 122 nM | CCOc1cc(C(=O)N2CCC3(CC2)Cc2sc(C(C)(C)C)nc2[C@H](O)C3)cc2c(C)nn(C)c12 [Example 4a, (R)-(2-(tert-butyl)-4-hydroxy-4,7-dihydro-5H-spiro[benzo[d]thiazole-6,4′-piperidin]-1′-yl)(7-ethoxy-1,3-dimethyl-1H-indazol-5-yl)methanone]
2 | 7 nM | CCOc1cc(C(=O)N2CCC3(CC2)Cc2sc(C(C)(C)C)nc2[C@@H](O)C3)cc2c(C)nn(C)c12 [Example 4b]

More lines, now with the values behind:

Row | Structure (SMILES) | IC50
3 | CCOc1cc(C(=O)N2CCC3(CC2)Cc2sc(C(C)(C)C)nc2C(O)C3)cc2c(C)nn(C)c12 (racemic) [Example 4, rac-(R)-(2-(tert-butyl)-4-hydroxy-4,7-dihydro-5H-spiro[benzo[d]thiazole-6,4′-piperidin]-1′-yl)(7-ethoxy-1,3-dimethyl-1H-indazol-5-yl)methanone] | 20 nM
4 | CCOc1cc(C(=O)N2CCC3(CC2)CC(=O)c2nc(C(C)(C)C)sc2C3)cc2c(C)n[nH]c12 [Example 1, 2-(tert-butyl)-1′-(7-ethoxy-3-methyl-1H-Indazole-5-carbonyl)-5H-spiro[benzo[d]thiazole-6,4′-piperidin]-4(7H)-one] | 10 nM
5 | Cc1nn(C)c2c(O)cc(C(=O)N3CCC4(CC3)CC(=O)c3nc(C(C)(C)C)sc3C4)cc12 [Example 2] | 11 nM
6 | CCOc1cc(C(=O)N2CCC3(CC2)CC(=O)c2nc(C(C)(C)CO)sc2C3)cc2c(C)nn(C)c12 [Example 3, 1′-(7-ethoxy-1,3-dimethyl-1H-Indazole-5-carbonyl)-2-(1-hydroxy-2-methylpropan-2-yl)-5H-spiro[benzo[d]thiazole-6,4′-piperidin]-4(7H)-one] | 16 nM
7 | Cc1nn(C)c2c(O)cc(C(=O)N3CCC4(CC3)CC(=O)c3nc(C(C)(C)CO)sc3C4)cc12 [Example 8] | > 0.145 nM
